Earlier results in patent publication US12274284B2, “High-energy food supplement based on inverted sugars and ergogenic products for use in physical activity and method for producing same” (priority 2019, dated 2025).
Where two headings read alike, the source gives them in different places.

Key:
[1] = oral administration
[2] = 1 to 6 g/day for a maximum of six months
[3] = 300 mg/day
oxidative stress markers = conditions: 300 mg/kg, 15 days, mice
action of insulin = conditions: 5%, 8 weeks, mice
[4] = not given; remark: listed apart in the source
[5] = tested on: muscle carnosine concentrations; conditions: 4-6 g/day

Cn1c(=O)c2c(ncn2C)n(C)c1=O [Caffeine, 1,3,7 trimethylxanthine]
bioavailability [1]: approximately 100%

C[N+](C)(C)C[C@H](O)CC(=O)[O-] [carnitine, L-carnitine]
adverse effect or intoxication [2]: no adverse effect or intoxication
plasma concentrations of carnitine [2]: considerably improved the plasma concentrations of carnitine

COC1=C(OC)C(=O)C(C/C=C(\C)CC/C=C(\C)CC/C=C(\C)CC/C=C(\C)CC/C=C(\C)CC/C=C(\C)CC/C=C(\C)CC/C=C(\C)CC/C=C(\C)CCC=C(C)C)=C(C)C1=O [coenzyme Q10]
feeling of tiredness and physical performance during effort tests [3]: reduced the feeling of tiredness and improved physical performance

CC(=O)C(=O)O [pyruvate, calcium pyruvate]
patients with a fat loss (0.05 g/Kg/day after 0.1 g/kg/day for 10 days, 13 to 38 days): 79.6%
patients with a reduction in skinfolds (in vivo): 89.8%
patients with a reduction in the abdomen circumference (in vivo): 74%

NCCS(=O)(=O)O [taurine, 2-aminoethanesulfonic acid]
superoxide radicals, lipid peroxidation, carbonylation (oxidative stress markers): reduced the production of superoxide radicals, lipid peroxidation, and carbonylation
action of insulin in liver and skeletal muscle (action of insulin): boosted the action of insulin in the liver and the skeletal muscle

O=C1O[C@H]([C@@H](O)CO)C(O)=C1O [vitamin C]
tissue concentration of the vitamin ([4]; 400 mg/day): increased the tissue concentration of the vitamin

NCCC(=O)O [β-alanine]
increase in muscle carnosine concentrations ([5]; after 10 weeks): 80%
increase in muscle carnosine concentrations ([5]; following 4 weeks): ≤ 64%

vitamin E
blood plasma concentration of a protein associated with muscle injury ([4]; 1000 UI/day): reduced the concentration of a protein associated with muscle injury in the blood plasma
